Our source for the drug sensitivity score values is the supplement of paper PMC9265050, “Inhibition of RNA Binding in SND1 Increases the Levels of miR-1-3p and Sensitizes Cancer Cells to Navitoclax” (Cancers, 2022).

In the assay the test system is SW480. The assay is described as follows: drug sensitivity score (DSS, integrated dose-response area); higher = more sensitive (stronger viability reduction); extreme values may be limits of the assay. The method, boiled down:
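After 7 days of induction with 0.1 µg/mL doxycycline, SW480 cells stably harbouring inducible control or SND1-targeting shRNA were plated at 1000 cells per well in 384-well plates preloaded with 525 small-molecule inhibitors at five concentrations. CellTiter-Glo viability readings were taken 72 h later. Drug sensitivity scores come from integrating the area under a fitted non-linear dose–response model.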

[1] abbreviates: shRNA: SND1 shRNA1 (SND1 silenced).
[2] abbreviates: shRNA: SND1 shRNA2 (SND1 silenced).
Setting [3] is: shRNA: control shRNA (non-targeting).

With `CN1CC[C@H](c2c(O)cc(O)c3c(=O)cc(-c4ccccc4Cl)oc23)[C@H](O)C1` [Alvocidib], the drug sensitivity score was found to be 21.9 DSS under setting [1], 20.3 DSS under setting [2] and 20.4 DSS under setting [3].
For `COc1cc(Br)c(Nc2nc(-c3c(C)nc4ncccn34)cs2)c(Br)c1` [PTC-209], in that order: 6.7 DSS, 2.2 DSS and 7.1 DSS.
For `CS(=O)(=O)c1ccc(C(=O)Nc2ccc(Cl)c(-c3ccccn3)c2)c(Cl)c1` [Vismodegib], in that order: 0 DSS, 0 DSS and 0 DSS.
For `COc1cc(CCc2cc(NC(=O)c3ccc(N4CC(C)NC(C)C4)cc3)n[nH]2)cc(OC)c1` (centres undefined) [AZD4547], in that order: 2.9 DSS, 0 DSS and 1.6 DSS.
For `Cc1ccc(C(=O)Nc2ccc(CN3CCN(C)CC3)c(C(F)(F)F)c2)cc1C#Cc1cnc2cccnn12` [Ponatinib], the drug sensitivity score reads like this: under setting [1], 5.9 DSS; under setting [2], 4.8 DSS; under setting [3], 4.4 DSS.
As to `CC(C)[C@H](C(=O)Nc1ccc(C(=O)NO)cc1)c1ccccc1` [AR-42], the drug sensitivity score is 19.6 DSS under setting [1], 12.9 DSS under setting [2] and 10.9 DSS under setting [3].
For `CC(C)C(=O)Nc1ccc([N+](=O)[O-])c(C(F)(F)F)c1` [Flutamide], in that order: 0 DSS, 0 DSS and 0 DSS.
As for `NS(=O)(=O)OC[C@@H]1C[C@@H](n2ccc3c(N[C@H]4CCc5ccccc54)ncnc32)C[C@@H]1O` [Pevonedistat], the drug sensitivity score is 4.5 DSS under setting [1] and 8.2 DSS under setting [3].
Take `Cc1c(CN2CCN(C(=O)[C@H](C)O)CC2)sc2c(N3CCOCC3)nc(-c3cnc(N)nc3)nc12` [Apitolisib]: the drug sensitivity score turned out to be 11 DSS under setting [1], 9.3 DSS under setting [2] and 6.6 DSS under setting [3].
For `Cn1ncnc1[C@H]1c2n[nH]c(=O)c3cc(F)cc(c23)N[C@@H]1c1ccc(F)cc1` [Talazoparib], in that order: 5.8 DSS, 0 DSS and 2.5 DSS.
For `CN(C)Cc1c(C(=O)NCCOc2ccc(C(=O)NO)cc2)oc2ccccc12` [Abexinostat], in that order: 21.3 DSS, 16.4 DSS and 19.4 DSS.
For `COc1ccc(Cn2ccc3ccc(C(=O)NO)cc32)cc1`, in that order: 3.3 DSS, 5.3 DSS and 1.8 DSS.
The compound `CC(C)c1cc(C(=O)N2Cc3ccc(CN4CCN(C)CC4)cc3C2)c(O)cc1O` [Onalespib] had a drug sensitivity score under setting [1] of 11.3 DSS, a drug sensitivity score under setting [2] of 9.4 DSS and a drug sensitivity score under setting [3] of 13.8 DSS.
For `CNC(=O)c1cccc2cc(Oc3ccnc4cc(OCC5(N)CC5)c(OC)cc34)ccc12` [Lucitanib], in that order: 2.3 DSS, 0.6 DSS and 3 DSS.
For `CN1CCN(CCOc2cc(OC3CCOCC3)c3c(Nc4c(Cl)ccc5c4OCO5)ncnc3c2)CC1` [Saracatinib], in that order: 1.4 DSS, 1.3 DSS and 1.5 DSS.
For `CC(C)C[C@H](NC(=O)[C@@H](COC(C)(C)C)NC(=O)[C@H](Cc1ccc(O)cc1)NC(=O)[C@H](CO)NC(=O)[C@H](Cc1c[nH]c2ccccc12)NC(=O)[C@H](Cc1cnc[nH]1)NC(=O)[C@@H]1CCC(=O)N1)C(=O)N[C@@H](CCCNC(=N)N)C(=O)N1CCC[C@H]1C(=O)NNC(N)=O` [Goserelin], in that order: 0 DSS, 0 DSS and 0 DSS.
On to `NCC(=O)Nc1ccc(-n2nc(C(F)(F)F)cc2-c2ccc3c(ccc4ccccc43)c2)cc1`, for which the drug sensitivity score under setting [1] was found to be 10 DSS, the drug sensitivity score under setting [2] worked out at 5.3 DSS and the drug sensitivity score under setting [3] amounted to 7.5 DSS.
In the case of `CC(C)n1cnc2c(NCCc3ccc(O)cc3)nc(-c3csc4ccccc34)nc21` [StemRegenin 1], the drug sensitivity score came to 1.3 DSS under setting [1], 1 DSS under setting [2] and 0.8 DSS under setting [3].
For `N#Cc1ccc(C(c2ccc(C#N)cc2)n2cncn2)cc1` [Letrozole], in that order: 0 DSS, 0 DSS and 0.1 DSS.
Turning to `C[C@H]1C[C@@H]2[C@H]([C@@H](O)C[C@@]3(C)[C@H]2CC[C@]3(O)C(=O)CO)[C@@]2(C)C=CC(=O)C=C12` [Methylprednisolone], the drug sensitivity score is, setting by setting: under setting [1], 0 DSS; under setting [2], 1.4 DSS; under setting [3], 0 DSS.
For the compound `CC(C)(C)c1cc(NC(=O)Nc2ccc(-c3cn4c(n3)sc3cc(OCCN5CCOCC5)ccc34)cc2)no1` [Quizartinib], the drug sensitivity score runs as follows: under setting [1], 0 DSS; under setting [2], 0 DSS; under setting [3], 0 DSS.
For the compound `CCC1(c2ccc(N)cc2)CCC(=O)NC1=O` (centres undefined) [Aminoglutethimide], the drug sensitivity score is, setting by setting: under setting [1], 0 DSS; under setting [2], 0 DSS; under setting [3], 0 DSS.
On to `Oc1ncc(N(CCCl)CCCl)c(O)n1` [Uramustine], for which the drug sensitivity score runs as follows: under setting [1], 0 DSS; under setting [2], 0.1 DSS; under setting [3], 0 DSS.
Take `CC[C@H](CO)Nc1nc(NCc2ccccc2)c2ncn(C(C)C)c2n1` [Seliciclib]: the drug sensitivity score is, setting by setting: under setting [1], 2.1 DSS; under setting [2], 0.7 DSS; under setting [3], 1.2 DSS.
For `C[C@]12CC[C@H](O)CC1=CC[C@@H]1[C@@H]2CC[C@]2(C)C(c3cccnc3)=CC[C@@H]12` [Abiraterone], in that order: 0 DSS, 0 DSS and 0 DSS.
`Nc1nc(F)nc2c1ncn2[C@@H]1O[C@H](CO)[C@@H](O)[C@@H]1O` [Fludarabine]: the drug sensitivity score reads like this: under setting [1], 1.8 DSS; under setting [2], 3.3 DSS; under setting [3], 4.7 DSS.
For `Cc1cc2c(C(=O)NC[C@H](C)c3ccccc3)c(O)c(O)cc2c(O)c1-c1c(C)cc2c(C(=O)NC[C@H](C)c3ccccc3)c(O)c(O)cc2c1O` [Sabutoclax], in that order: 14.2 DSS, 13.3 DSS and 12.7 DSS.
For `COc1ccccc1S(=O)(=O)Nc1ccc2c(c1)CN(C)C(=O)N2` [PFI-1], in that order: 1.8 DSS, 0.5 DSS and 0.4 DSS.
Consider `C[C@@H]1CN(CC(=O)Nc2ccc3c(c2)Cc2cccc(-c4cc(=O)cc(N5CCOCC5)o4)c2S3)C[C@H](C)O1`, for which the drug sensitivity score under setting [1] turned out to be 6.4 DSS and the drug sensitivity score under setting [3] stood at 5.3 DSS.
As for `Cc1cc(-c2ncc(-c3cccnc3)cc2/C=C/c2ccccc2)cnc1-c1cccnc1` [Pyridoclax], the drug sensitivity score reads like this: under setting [1], 4.1 DSS; under setting [2], 2.7 DSS; under setting [3], 0.2 DSS.
As for `CO[C@H]1C[C@@H]2CC[C@@H](C)[C@@](O)(O2)C(=O)C(=O)N2CCCC[C@H]2C(=O)O[C@H]([C@H](C)C[C@@H]2CC[C@@H](OP(C)(C)=O)[C@H](OC)C2)CC(=O)[C@H](C)/C=C(\C)[C@@H](O)[C@@H](OC)C(=O)[C@H](C)C[C@H](C)/C=C/C=C/C=C/1C` [Ridaforolimus], the drug sensitivity score under setting [1] was determined as 5.9 DSS and the drug sensitivity score under setting [3] came to 2.3 DSS.
Turning to `N[C@@H](Cc1ccc(N(CCCl)CCCl)cc1)C(=O)O` [Melphalan], the drug sensitivity score by setting is: under setting [1], 0 DSS; under setting [3], 0 DSS.
Consider `O=C(O)c1ccc2c(c1)nc(Nc1cccc(Cl)c1)c1ccncc12` [Silmitasertib], for which the drug sensitivity score runs as follows: under setting [1], 2.1 DSS; under setting [2], 2.1 DSS; under setting [3], 0.8 DSS.
Regarding `Nc1ncnc2c1nc(Cl)n2[C@@H]1O[C@H](CO)[C@@H](O)[C@H]1O` [8-chloro-adenosine], the drug sensitivity score by setting is: under setting [1], 13.5 DSS; under setting [2], 13.3 DSS; under setting [3], 11.3 DSS.
For `CNC(=O)c1ccc(N2C(=S)N(c3cnc(C#N)c(C(F)(F)F)c3)C(=O)C23CCC3)cc1F` [ARN 509], in that order: 0.7 DSS, 0 DSS and 0.9 DSS.
In the case of `CC(C)(C)c1nc(-c2cccc(NS(=O)(=O)c3c(F)cccc3F)c2F)c(-c2ccnc(N)n2)s1` [Dabrafenib], the drug sensitivity score under setting [1] is 0 DSS and the drug sensitivity score under setting [3] amounted to 0 DSS.
Consider `COc1cc([C@@H]2c3cc4c(cc3[C@@H](O[C@@H]3O[C@@H]5CO[C@@H](c6cccs6)O[C@H]5[C@H](O)[C@H]3O)[C@H]3COC(=O)[C@H]23)OCO4)cc(OC)c1O` [Teniposide], for which the drug sensitivity score stood at 9.1 DSS under setting [1], 6 DSS under setting [2] and 7.8 DSS under setting [3].
In the case of `O=C(c1ccc(C(=O)N2CCC(N3CCCC3)CC2)c(Nc2ccccc2)c1)N1CCC(N2CCCC2)CC1` [UNC1215], the drug sensitivity score is, setting by setting: under setting [1], 2.6 DSS; under setting [2], 1.9 DSS; under setting [3], 1.1 DSS.
For `c1ccc2c(CCNc3ccc(Nc4ccncc4)cc3)c[nH]c2c1` [Serdemetan], the drug sensitivity score is 2.4 DSS under setting [1], 1 DSS under setting [2] and 2.2 DSS under setting [3].
Consider `c1cc(CN2CCCNCCNCCCNCC2)ccc1CN1CCCNCCNCCCNCC1` [Plerixafor], for which the drug sensitivity score was found to be 0 DSS under setting [1] and 0 DSS under setting [3].
